Reference: US6649364B1, “Anti-apoptotic compositions and methods using same” (The Regents of the University of California, priority 1995, dated 2003)
Where a SMILES comes first, the peptide text is derived from it. [ ]: non-standard residue; d: D form. The star is where a group is joined. Sta = CC(C)C[C@H](N)[C@@H](O)CC(=O)O; Isovaleryl = CC(C)CC(=O)*

Each molecule was assayed against T1, human recombinant ICE (Homo sapiens, UniProt P29466) (assay: ICE cleavage of actin in PC12 cell extracts, with protease inhibitors (SDS-PAGE, immunoblot)). Details: not given.
T1 construct: highly purified human recombinant ICE (p20/p10) (Merck, Wayne, N.J.); purchased Merck, Wayne, N.J
T1 sequence (P29466 120-297 limits assumed): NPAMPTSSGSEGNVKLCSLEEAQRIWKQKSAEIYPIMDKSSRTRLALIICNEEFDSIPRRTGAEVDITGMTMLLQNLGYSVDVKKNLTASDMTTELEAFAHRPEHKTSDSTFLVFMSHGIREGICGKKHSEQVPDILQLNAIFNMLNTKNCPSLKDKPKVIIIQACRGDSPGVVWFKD
T1 sequence (P29466 317-404 limits assumed): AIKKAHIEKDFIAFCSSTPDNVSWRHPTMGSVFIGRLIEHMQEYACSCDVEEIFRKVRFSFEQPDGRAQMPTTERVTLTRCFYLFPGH
Type: biochemical
Experimental: Cells were washed with ice-cold PBS twice and were extracted with Triton X-100® detergent (1%) in Hepes buffer (10 mM, pH=7.5). Supernatants were treated with ICE as follows: 50 μg of cellular protein extracted from semi-confluent cells grown in serum-containing media was incubated with 50 ng of highly purified human recombinant ICE (p20/p10) (Merck, Wayne, N.J.) at 37° C. for 2 hours in the presence of 10 mM dithiothreitol (DTT).
In order to determine whether any of the cellular proteins of relatively high abundance serve as ICE substrates, extracts prepared from PC12 pheochromocytoma cells (29), CSM14.1 cells (conditionally immortalized mesencephalic neuronal cells) (30, 31), and Rat-1 cells (25) were treated with highly purified human recombinant ICE under various conditions. The cleavage products were then analyzed by SDS-polyacrylamide gel electrophoresis.
Control was incubated in the absence of ICE.

Molecule	inhibition of the generation of actin fragments by ICE
O=C(O)CI [iodoacetate]	completely inhibited

Same assay, conditions: cell extracts treated with ICE, 37° C., 2 hours

inhibition of the generation of actin fragments by ICE	Molecule
not	CC(C)C[C@H](NC(=O)[C@H]1O[C@@H]1C(=O)O)C(=O)NCCCCN=C(N)N [E-64]
not	CC(C)CC(=O)N[C@H](C(=O)N[C@H](C(=O)N[C@@H](CC(C)C)[C@@H](O)CC(=O)N[C@@H](C)C(=O)N[C@@H](CC(C)C)[C@@H](O)CC(=O)O)C(C)C)C(C)C [pepstain] (Isovaleryl-VV[Sta]A[Sta]-OH)
completely inhibited	Ac-Tyr-Val-Ala-Asp-CHO
not	human α2-macroglobulin: granzyme B inhibitor, shown not to inhibit ICE

Molecule	inhibition of the generation of actin fragments by ICE
CC(=O)N[C@@H](CC(C)C)C(=O)N[C@@H](CC(C)C)C(=O)N[C@H](C=O)CCCNC(=N)N [leupeptin]	not
O=S(=O)(F)Cc1ccccc1 [phenylmethylsulfonyl fluoride]	not
